Drawing on BindingDB's records for patent US20240277683 (Ctxt, 2024), this text covers IC50 for 3 compounds.

The IC50 is the concentration that inhibits the measured activity by half. Read a low IC50 as greater potency.

For assay [1], the target named is Histone acetyltransferase KAT5 (Homo sapiens, UniProt Q92993). Nature of the assay: Acetyltransferase Biochemical Assay. The method, then: (§1) The reactions were performed in assay buffer (100 mM Tris-HCl, pH7.8, 15 mM NaCl, 1 mM EDTA, 0.01% Tween-20, 1 mM Dithiothreitol and 0.01% m/v chicken egg white albumin). […] 11-point dilution series of the test compounds were prepared in DMSO; a volume of 100 nL was transferred using a pin tool into assay plates containing substrates, […] control reactions were included on the same plates and received the same amount of DMSO as the compound treated wells. After adding all reagents, the plates were sealed with adhesive seals and incubated for 90 min at room temperature. An additional 4 uL of assay buffer containing AlphaScreen Protein A acceptor beads […] was then added.
Chain of Histone acetyltransferase KAT5 (Q92993 whole entry): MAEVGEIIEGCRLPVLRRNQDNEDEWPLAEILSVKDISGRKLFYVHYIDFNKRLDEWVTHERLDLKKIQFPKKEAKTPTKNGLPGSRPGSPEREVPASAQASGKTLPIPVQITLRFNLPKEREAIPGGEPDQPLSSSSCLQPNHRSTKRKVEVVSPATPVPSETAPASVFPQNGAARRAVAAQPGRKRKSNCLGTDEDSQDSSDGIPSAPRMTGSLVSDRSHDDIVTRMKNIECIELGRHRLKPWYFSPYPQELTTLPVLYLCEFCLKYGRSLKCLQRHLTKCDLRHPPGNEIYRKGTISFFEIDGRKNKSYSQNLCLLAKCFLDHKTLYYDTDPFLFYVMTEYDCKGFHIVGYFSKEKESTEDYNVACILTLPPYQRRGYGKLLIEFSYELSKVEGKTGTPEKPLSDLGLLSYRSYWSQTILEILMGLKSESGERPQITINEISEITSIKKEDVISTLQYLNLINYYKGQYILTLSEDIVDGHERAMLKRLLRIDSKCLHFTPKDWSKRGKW

For assay [2], the target named is Histone acetyltransferase KAT7 (Homo sapiens, UniProt O95251). Briefly: Acetyltransferase Biochemical Assay. On the procedure:
as §1

Chain of Histone acetyltransferase KAT7 (O95251 whole entry): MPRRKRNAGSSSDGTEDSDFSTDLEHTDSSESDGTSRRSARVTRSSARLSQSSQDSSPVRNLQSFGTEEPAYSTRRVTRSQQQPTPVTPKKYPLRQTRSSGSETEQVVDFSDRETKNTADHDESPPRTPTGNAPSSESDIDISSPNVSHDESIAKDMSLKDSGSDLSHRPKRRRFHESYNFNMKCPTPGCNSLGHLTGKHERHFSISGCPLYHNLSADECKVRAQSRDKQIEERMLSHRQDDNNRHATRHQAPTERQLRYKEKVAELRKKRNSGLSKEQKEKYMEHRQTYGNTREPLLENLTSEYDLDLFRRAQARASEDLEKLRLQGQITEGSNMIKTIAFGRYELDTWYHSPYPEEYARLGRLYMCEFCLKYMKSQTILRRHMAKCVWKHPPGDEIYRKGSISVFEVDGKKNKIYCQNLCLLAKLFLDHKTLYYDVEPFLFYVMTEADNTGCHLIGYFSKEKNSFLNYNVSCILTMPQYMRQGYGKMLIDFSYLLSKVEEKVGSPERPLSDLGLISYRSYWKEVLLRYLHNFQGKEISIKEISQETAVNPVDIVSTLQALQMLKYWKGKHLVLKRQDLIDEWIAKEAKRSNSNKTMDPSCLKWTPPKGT

For `COc1ccccc1-c1nnc(NS(=O)(=O)C2CCNCC2)s1` [US20240277683, Example 129], the 50% inhibitory concentration (IC50) in assay [1] was > 125 µM.
As to `O=S(=O)(Nc1cc(-c2ccccc2)on1)C1CC1` [US20240277683, Example 29], the 50% inhibitory concentration (IC50) in assay [1] and in assay [2] was > 125 µM throughout.
Take `O=S(=O)(Nc1cc(-c2ccccc2)on1)c1ccc2c(c1)CCCC2` [US20240277683, Example 76]: the IC50 in assay [1] is > 125 µM.
